Consider 55 molecules from article PMC5706701, “Development of a homogenous high-throughput assay for inositol hexakisphosphate kinase 1 activity” (PLoS ONE, 2017).

Where a name gives a salt, the structure may show the parent alone. Read-outs that look alike come from different tables or passages of the source.

This experiment addresses T1, Human IP6K1 (Homo sapiens, UniProt Q92551).
T1 construct: GST (N, cleaved yes); made in house; host or cells: C43 E. coli, pGEX-6P-2
Briefly: IP6K1 high-throughput screen of the Sigma LOPAC (ADP-Glo Max, single point).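 Note: final compound concentration 10µM in 5% DMSO.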 It is filed as biochemical. On the technique in general: ADP-Glo first removes unused ATP, then detects ADP through luciferase.

[1] abbreviates: LOPAC single-point screen, ADP-Glo Max raw signal per well.
Setting [2] is: LOPAC single-point screen, Z-score from raw signal with plate average and StDev.
Where [3] appears, read: LOPAC single-point screen, ADP-Glo Max luminescence raw signal per well.
Setting [4] is: LOPAC single-point screen, Z-score relative to plate average and StDev.
[5] abbreviates: Sigma LOPAC single-point screen, ADP-Glo Max raw signal per well.
[6] abbreviates: Sigma LOPAC single-point screen, Z-score from plate average and StDev.
Setting [7] is: LOPAC single-point screen, Z-score from plate average and StDev.
[8] abbreviates: LOPAC single-point screen, Z-score against plate average and StDev.

T1 sequence (Q92551 whole entry): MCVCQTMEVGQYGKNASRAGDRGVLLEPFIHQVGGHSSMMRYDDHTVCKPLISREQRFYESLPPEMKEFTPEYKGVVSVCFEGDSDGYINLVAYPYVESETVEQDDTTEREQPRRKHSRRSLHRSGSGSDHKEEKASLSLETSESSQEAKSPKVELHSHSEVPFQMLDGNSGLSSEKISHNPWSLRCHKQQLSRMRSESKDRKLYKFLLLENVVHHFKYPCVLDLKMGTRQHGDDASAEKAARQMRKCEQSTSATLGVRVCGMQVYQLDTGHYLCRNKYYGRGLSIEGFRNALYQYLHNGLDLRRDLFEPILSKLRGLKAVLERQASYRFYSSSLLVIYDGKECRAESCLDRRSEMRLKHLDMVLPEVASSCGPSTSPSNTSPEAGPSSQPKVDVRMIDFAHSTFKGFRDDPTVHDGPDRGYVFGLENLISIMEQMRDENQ

`N[C@@H]1CONC1=O` (racemic) [DL-Cycloserine]: the “Raw Signal” value under setting [1] is reported as 55454. Under setting [2], this molecule displayed a Z-score of -0.4331.

For the molecule `CC[N+](C)(C)Cc1ccccc1Br` [Bretylium tosylate], the “Raw Signal” value under setting [1] is 56921. Besides, the Z-score under setting [2] is on record as -0.1747.

On to `CN1CCC(c2c[nH]c3ccc(O)cc23)CC1.O=C(O)/C=C\C(=O)O` [BRL 54443 maleate], for which the “Raw Signal” value under setting [3] is 53701. For the same molecule, the Z-score under setting [4] is reported as -0.7419.

Consider S-Nitroso-N-acetylpenicillamine, for which, under setting [1], the “Raw Signal” value turned out to be 52205. In addition, under setting [2], the Z-score is -0.3677.

On to `C#CCN(C)[C@H](C)Cc1ccccc1.Cl` [R-(-)-Deprenyl hydrochloride], for which, under setting [1], the “Raw Signal” value amounted to 53619. Besides, the Z-score under setting [2] is listed as -0.1301.

In the case of `Br.CCCN1CCc2cc(O)cc3c2[C@H]1Cc1ccc(O)c(O)c1-3`, the “Raw Signal” value under setting [3] is 52120. The molecule also displayed a Z-score under setting [4] of -0.6188.

In the case of `Cl.Cl.Cl.Ic1ccc(N2CCN(Cc3c[nH]c4ncccc34)CC2)cc1` [L-750,667 trihydrochloride], the “Raw Signal” value under setting [5] is 61468. Under setting [6], this molecule yielded a Z-score of 1.1887.

Consider `CCCCNc1c(C(=O)OCC)c(C)nc2c1cnn2CC` [Tracazolate], for which the “Raw Signal” value under setting [5] is on record as 59222. In addition, the Z-score under setting [6] is given as 0.6213.

Regarding `NC1(C(=O)O)CCc2cc(C(=O)O)ccc21` (stereo not drawn) [AIDA], the “Raw Signal” value under setting [3] is listed as 52578. This molecule also gave a Z-score under setting [4] of -0.9397.

As for `CN1CCN(CC/C=C2/c3ccccc3Sc3ccc(S(=O)(=O)N(C)C)cc32)CC1.Cl` [Thiothixene hydrochloride], under setting [3], the “Raw Signal” value is given as 52919. In addition, the Z-score under setting [4] is -0.6032.

Regarding `O=C(/C=C/c1ccc(O)cc1)c1ccc(O)cc1O` [Isoliquiritigenin], under setting [1], the “Raw Signal” value worked out at 53778. This molecule also registered a Z-score under setting [2] of -0.1034.

`COc1ccc(Cl)cc1C(=O)NCCc1ccc(S(=O)(=O)NC(=O)NC2CCCCC2)cc1` [Glibenclamide]: the “Raw Signal” value under setting [5] is 57524. The molecule further gave a Z-score under setting [6] of 0.4787.

Consider `C[N+](C)(C)CCOC(=O)CCC(=O)OCC[N+](C)(C)C` [Succinylcholine chloride], for which the “Raw Signal” value under setting [3] stood at 51489. Under setting [4], this molecule displayed a Z-score of -0.881.

Turning to `COc1ccccc1N1CCN(CCCNc2c(C)c(=O)n(C)c(=O)n2C)CC1` [Urapidil, 5-Methyl-], under setting [5], the “Raw Signal” value turned out to be 62058. The molecule also displayed a Z-score under setting [6] of 1.172.

As for `CNCC[C@H](Oc1ccc(C(F)(F)F)cc1)c1ccccc1.Cl` [S-(+)-Fluoxetine hydrochloride], the “Raw Signal” value under setting [5] was 58446. The molecule further registered a Z-score under setting [6] of 0.6659.

`CP(=O)(O)CCCN.Cl` [SKF 97541 hydrochloride]: under setting [1], the “Raw Signal” value turned out to be 57179. Under setting [2], this molecule displayed a Z-score of -0.1293.

Take `COc1ccccc1OCC(O)CN1CCN(CC(=O)Nc2c(C)cccc2C)CC1` (stereo not drawn) [Ranolazine dihydrochloride]: the “Raw Signal” value under setting [1] is reported as 54866. This molecule also registered a Z-score under setting [2] of -0.2249.

For the molecule `CNCCC(Oc1ccc(C(F)(F)F)cc1)c1ccccc1` (stereo not drawn) [Fluoxetine hydrochloride], under setting [5], the “Raw Signal” value amounted to 60043. This molecule also gave a Z-score under setting [6] of 0.9903.

As to `CNc1ccc2oc(C[C@H]3O[C@@]4(CC[C@H]3C)O[C@H]([C@H](C)C(=O)c3ccc[nH]3)[C@H](C)C[C@H]4C)nc2c1C(=O)O` [Calcimycin], the “Raw Signal” value under setting [3] was found to be 66206. The molecule further yielded a Z-score under setting [7] of 1.461.

`CC(C)[C@@]1(NC(=O)[C@@H]2C[C@@H]3c4cccc5[nH]cc(c45)C[C@H]3N(C)C2)O[C@@]2(O)[C@@H]3CCCN3C(=O)[C@H](Cc3ccccc3)N2C1=O.CS(=O)(=O)O` [Dihydroergocristine methanesulfonate]: the “Raw Signal” value under setting [3] was 65195. The molecule further displayed a Z-score under setting [7] of 2.037.

Regarding `Oc1ccc(O)cc1` [Hydroquinone], the “Raw Signal” value under setting [5] stood at 59753. Besides, the Z-score under setting [6] came out at 0.9314.

In the case of `NC(Cc1ccc(Cl)cc1)C(=O)O` (racemic) [(±)-p-Chlorophenylalanine], the “Raw Signal” value under setting [3] was found to be 55203. In addition, the Z-score under setting [4] was -0.4773.

As to `OC[C@H]1O[C@@H](n2cnc3c(N[C@H]4CC5CCC4C5)ncnc32)[C@H](O)[C@@H]1O` (stereo partly drawn) [(S)-ENBA], the “Raw Signal” value under setting [1] is given as 53537. This molecule gave a Z-score under setting [2] of -0.331.

`Br.COc1ccccc1N1CCN(CCCCN2C(=O)c3ccccc3C2=O)CC1` [NAN-190 hydrobromide]: under setting [5], the “Raw Signal” value is listed as 61226. Under setting [6], this molecule yielded a Z-score of 1.148.

As for `Oc1ccc(-c2nc(-c3ccncc3)c(-c3ccc(F)cc3)[nH]2)cc1` [SB 202190], the “Raw Signal” value under setting [1] came to 58086. The same molecule gave a Z-score under setting [8] of 0.03045.

In the case of `O=C(O)C1=CCNCC1` [Isoguvacine hydrochloride], under setting [1], the “Raw Signal” value is 53600. Further, under setting [2], the Z-score is -0.3182.

Turning to `NC(=O)c1cc[n+](CC2=C(C(=O)[O-])N3C(=O)[C@@H](NC(=O)C(c4ccccc4)S(=O)(=O)[O-])[C@H]3SC2)cc1.O.[Na+]` (stereo partly drawn) [Cefsulodin sodium salt hydrate], the “Raw Signal” value under setting [1] is listed as 56779. Further, under setting [2], the Z-score is -0.1997.

With `CC[C@@H]1Cc2cc(O)ccc2C2=C1c1ccc(O)cc1C[C@H]2CC`, under setting [3], the “Raw Signal” value is given as 51869. In addition, under setting [4], the Z-score is -0.6698.

As to `O=c1c(O)c(-c2ccc(O)cc2O)oc2cc(O)cc(O)c12` [Morin], the “Raw Signal” value under setting [3] is given as 34376. In addition, the Z-score under setting [4] is -3.363.

As to `O=P1(N(CCCl)CCCl)NCCCO1` (stereo not drawn) [Cyclophosphamide monohydrate], the “Raw Signal” value was determined as 58935 and the Z-score turned out to be 0.18.

Turning to `Cn1cc(C(=O)OCC2CCN(CCNS(C)(=O)=O)CC2)c2ccccc21` [GR 113808], the “Raw Signal” value under setting [1] turned out to be 56278. Under setting [2], this molecule registered a Z-score of -0.288.

Regarding `CC(C(=O)O)c1cccc(C(=O)c2ccccc2)c1` (stereo not drawn) [Ketoprofen], the “Raw Signal” value under setting [1] is 53403. The molecule also returned a Z-score under setting [2] of -0.1664.

With `O=S(=O)(c1cccc2cnccc12)N1CCNCC1` [HA-100], under setting [5], the “Raw Signal” value is recorded as 57010. Under setting [6], the Z-score is reported as 0.3743.

As to `Oc1ccccc1O` [Pyrocatechol], the “Raw Signal” value under setting [3] was found to be 49319. Under setting [4], this molecule displayed a Z-score of -1.514.

As for `Nc1ncnc2c1ncn2[C@@H]1O[C@H](COP(=O)(O)OP(=O)(O)OP(=O)(O)OP(=O)(O)OC[C@H]2O[C@@H](n3cnc4c(N)ncnc43)[C@H](O)[C@@H]2O)[C@@H](O)[C@H]1O`, under setting [1], the “Raw Signal” value turned out to be 55437. For the same molecule, the Z-score under setting [8] was 0.05483.

Take `N=C(N)NC(=O)c1nc(Cl)c(N)nc1N` [Amiloride hydrochloride]: the “Raw Signal” value under setting [5] is 63890. The Z-score under setting [6] stood at 1.0527.

With `c1ccc(C2CN3CCSC3=N2)cc1` (stereo not drawn) [Tetramisole hydrochloride], the “Raw Signal” value under setting [3] came to 64300. For the same molecule, under setting [7], the Z-score is reported as 1.608.

For `N=C(N)NCCC[C@H](N)C(=O)O` [L-Arginine], the “Raw Signal” value under setting [1] was 58902. The same molecule showed a Z-score under setting [8] of 0.1742.

With `CN(C)CCC=C1c2ccccc2COc2ccccc21` [Doxepin hydrochloride], under setting [5], the “Raw Signal” value is recorded as 58742. This molecule also came in with a Z-score under setting [6] of 0.726.

Take `Cc1ccccc1N1CCN(S(=O)(=O)CC23CCC(CC2NC(=O)C(N)CCS(C)(=O)=O)C3(C)C)CC1` [L-368,899]: under setting [3], the “Raw Signal” value is given as 50329. Under setting [4], this molecule showed a Z-score of -0.6829.

Turning to `COC(=O)c1c(-c2cc(OC)c(OC)c(OC)c2)c2ccnc(OCc3ncccn3)c2c(=O)n1Cc1ccnc(C)c1` [T-0156], under setting [3], the “Raw Signal” value turned out to be 53574. For the same molecule, under setting [4], the Z-score is -0.476.

Turning to `CCCCC#Cc1nc(N)c2ncn([C@@H]3O[C@H](C(=O)NCC)[C@@H](O)[C@H]3O)c2n1` [HE-NECA], the “Raw Signal” value under setting [5] came to 57534. For the same molecule, under setting [6], the Z-score is reported as 0.4807.

On to `N=C(N)SCCc1cnc[nH]1` [Imetit dihydrobromide], for which the “Raw Signal” value was determined as 60718 and the Z-score was determined as 1.063.

Consider `C/C(=C\c1ccc(C(=O)O)cc1)c1ccc2c(c1)C(C)(C)CCC2(C)C` [TTNPB], for which, under setting [1], the “Raw Signal” value stood at 53849. Under setting [2], the Z-score is reported as -0.4225.

For `CNC(=O)[C@H]1O[C@@H](n2cnc3c(NCc4cccc(I)c4)nc(Cl)nc32)[C@H](O)[C@@H]1O` [Chloro-IB-MECA], under setting [3], the “Raw Signal” value came out at 50053. In addition, the Z-score under setting [4] was -1.039.

Regarding `N#CC(C#N)=Cc1ccc(O)c(O)c1` [Tyrphostin 23], the “Raw Signal” value under setting [3] is reported as 48444. Further, the Z-score under setting [4] is -1.473.

On to `CC(C)[C@H]1CN[C@H](C(=O)O)[C@H]1CC(=O)O` [Dihydrokainic acid], for which the “Raw Signal” value under setting [1] came to 53229. The same molecule displayed a Z-score under setting [2] of -0.3936.

On to `Br.Cc1o[nH]c(=O)c1CC(N)C(=O)O` (racemic) [(±)-AMPA hydrobromide], for which the “Raw Signal” value under setting [1] worked out at 54656. Also, the Z-score under setting [2] was -0.1038.

On to `COc1cc(C=C(C#N)C#N)cc(O)c1O` [Tyrphostin AG 34], for which, under setting [1], the “Raw Signal” value stood at 55934. The same molecule gave a Z-score under setting [8] of -0.01745.

Regarding `CNCCc1c[nH]c2ccc(O)cc12.O=C(O)C(=O)O`, under setting [1], the “Raw Signal” value turned out to be 53556. The Z-score under setting [2] is -0.1407.

Picrotoxin registered a Z-score under setting [4] of -0.5599.

Take `COc1ccccc1N1CCN(CCCCNC(=O)c2ccc3ccccc3c2)CC1` [BP 897]: the “Raw Signal” value under setting [5] was found to be 60942. Moreover, the Z-score under setting [6] is 0.5335.

In turn, `CN1C(=O)CC[C@H]1c1cccnc1` [(-)-Cotinine] yielded a Z-score under setting [4] of -0.59.

Regarding `CC[C@@]1(O)C(=O)OCc2c1cc1n(c2=O)Cc2cc3ccccc3nc2-1` [(S)-(+)-Camptothecin], the “Raw Signal” value under setting [5] was 58626. Also, the Z-score under setting [6] came to 0.7025.

With `O=C([O-])CCC(NC(=O)c1ccccc1C(=O)[O-])C(=O)[O-].[Na+].[Na+].[Na+]` [Phthalamoyl-L-glutamic acid trisodium], under setting [5], the “Raw Signal” value was determined as 58114. The Z-score under setting [6] was determined as 0.4061.
